row,SMILES,melting point [°C]
1,CC(C)(C)Sc1ccc(Cn2c(CC(C)(C)C(=O)O)c(SC(C)(C)C)c3cc(OCc4ccc5ccccc5n4)ccc32)cc1,172 to 173
2,CC(=O)c1cc2cc(O)c(Cl)c(Cl)c2s1,199 to 201
3,COCCCn1nnnc1-c1cc(-c2cccc(C(F)(F)F)c2)c(O)cc1O,144 to 182
4,COC(=O)C[C@@H]1C[C@@H](COc2ccc(-c3ccc(C(=N)NC(=O)OCc4ccccc4)cc3)cc2)N(c2ccccc2)C1=O,157 to 159
5,CN(C)CCSc1ncccc1C(O)c1ccccc1 (stereo unspecified),88 to 89
6,CC1(C)CC(=O)c2c(O)cc(O)cc2C1,115 to 116
7,O=C1CC(c2ccccc2)Nc2ccccc2N1Cc1ccccc1 (stereo unspecified),132 to 133
8,FC(F)(F)c1c[nH]c(-c2ccc(-c3nc(C(F)(F)F)c[nH]3)cc2)n1,325
9,ClCc1nc2nc(Cl)c(Cl)nc2s1,126 to 128
10,O=c1ccn([C@H]2C=C[C@@H](O)C2)c(=O)[nH]1 (racemic),163 to 164
11,CN(C)C(Cl)=Nc1snc(C(C)(C)C)c1C#N,94 to 100
12,CCNC(=O)Nc1nc2cc(-c3c(C)noc3C)cc(C(=O)NCC)n2n1,238 to 241
13,C=CCOc1cc(-n2c(=O)cc(C(F)(F)F)n(C)c2=O)ccc1C#N,158 to 160
14,Oc1ccc(-c2nnc(Nc3ccc(Br)c(Cl)c3)s2)cc1O,220
15,c1ccc(C(c2ccccc2)N2CCN(CCCCCCNc3ccc4ncnn4n3)CC2)cc1,130 to 132
16,NN(c1ccccc1)C1CCS(=O)(=O)C1 (stereo unspecified),120 to 121
17,O=C1C(=O)c2c(nc3ccccn23)-c2cccc(Cl)c21,> 260
18,CNC(=O)C(=O)c1cc(Cl)cc(C)c1NC(=O)c1cc(Br)nn1-c1ncccc1Cl,246 to 247
19,O=c1cc(-c2ccc(OC3CCN(C4CCC4)CC3)cc2)cn[nH]1,296 to 298
20,Clc1ccc2c(Nc3ccccc3)ccnc2c1,207
21,CC1=CC2CC(O)CCC2(C)C2=C1C1CCC(C(C)CCCC(C)C)C1(C)CC2 (stereo unspecified),112 to 113
22,C=Cc1ccc2cc(C3CCN(Cc4ccccc4)CC3)ccc2c1,112 to 114

# Other lines, results leading:
row,melting point [°C],SMILES
1,161 to 162,CSc1ccc(CSc2cccc(C(=O)Nc3ccc(C#N)cn3)c2)cc1
2,208 to 211,COc1c(C)c2c(c(O)c1CC1=C(C)CC(C(=O)O)C1)C(=O)OC2 (stereo unspecified)
3,141 to 142,CCOC(=O)COc1cccc2nc3c(c(N)c12)CCCC3
4,197 to 199,CCc1nccn1-c1nc(-c2ccc(Cl)cc2)c(CCC(=O)O)o1
5,220 to 222,COc1cc(OC)cc(N2Cc3cnc(S(C)=O)nc3NC2=O)c1 (stereo unspecified)
6,166 to 168,COC(=O)c1cc2cc(OC)c(OC)cc2nc1/N=C/N(C)C
7,180 to 183,CCOC(=O)n1c(=O)[nH]c2cc(OC)ccc21
8,244 to 245,CCCc1[nH]c2cc(C(=O)O)ccc2c1C(=O)C1CCC1
9,45 to 46,Cc1ccccc1Oc1cccc2c1OC(=O)C2C (stereo unspecified)
10,47 to 48,Cc1cc2c(cc1C)C(=O)CCC2
11,87 to 89,COc1ccccc1-c1ccc(C[C@H](NC(=O)c2c(Cl)cccc2Cl)C(=O)O)cc1C(C)=O
12,69,O=c1c2ccccc2nnn1CCCCl
13,161 to 163,CC(C)Cn1c(CN)c(-c2ccccc2)c2cc(OCC(N)=O)ccc2c1=O
14,79 to 81,Cc1ncoc1C(O)c1ccccc1 (stereo unspecified)
15,164,Cc1ccc(-c2ccc3c(c2)C=C(C(=O)Nc2ccc(CCl)cc2)CCO3)cc1
16,86 to 87,Cc1nc2c(s1)CCCC2=O
17,145 to 149,CC(=O)Nc1nc(/C=C/C(=O)N2CCN(C(=O)c3cc(C(F)(F)F)cc(C(F)(F)F)c3)[C@H](Cc3ccc(C)c(C)c3)C2)cs1
18,153 to 155,Cc1cccc(-c2[nH]c(C(C)C)nc2-c2ccc(F)c(-c3ccc(C(=O)NN4CCOCC4)cc3)c2)n1
19,38.5 to 40,CCOC(=O)CCCCCOc1c(/C=C/C(=O)CCc2ccccc2)occc1=O

# Reference: a melting point compilation (Tetko et al.; mined from patent text by program, amines drawn as free bases though some values may be those of a salt)
